Test results as given in ChEMBL document CHEMBL1135027, “Tyrosylprotein sulfotransferase inhibitors generated by combinatorial target-guided ligand assembly” (Bioorg Med Chem Lett, 2002).
Each block holds one molecule with its values, some of them ahead of it.

Columns and labels:
[1] = biological target: T1, Protein-tyrosine sulfotransferase 2 (Homo sapiens, UniProt O60704); assay: Displacement of [35S]PAPS from human tyrosylprotein sulfotransferase-2 (hTPST-2); design: concentration or dose not given beside the values
T1 sequence (O60704 whole entry): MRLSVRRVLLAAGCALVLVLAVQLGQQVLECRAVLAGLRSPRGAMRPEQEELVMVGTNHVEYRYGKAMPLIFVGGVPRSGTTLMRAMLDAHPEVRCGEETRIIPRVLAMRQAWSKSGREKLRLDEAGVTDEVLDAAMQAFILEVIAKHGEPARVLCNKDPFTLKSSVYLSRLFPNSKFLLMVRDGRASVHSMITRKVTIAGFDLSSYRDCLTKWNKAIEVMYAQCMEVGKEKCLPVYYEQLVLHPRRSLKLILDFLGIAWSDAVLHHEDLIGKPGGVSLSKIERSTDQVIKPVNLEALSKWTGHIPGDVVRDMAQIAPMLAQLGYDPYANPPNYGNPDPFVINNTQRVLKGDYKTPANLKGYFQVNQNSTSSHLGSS

[2] = biological target: T1, Protein-tyrosine sulfotransferase 2; assay: Inhibitory activity of compound was determined against human tyrosylprotein sulfotransferase-2 (hTPST-2) using [35S]PAPS radioligand
[3] = biological target: T1, Protein-tyrosine sulfotransferase 2; assay: Inhibitory activity of compound was determined against human tyrosylprotein sulfotransferase-2 (hTPST-2) using [35S]PAPS radioligand at 800 uM
Sulfotransferase 1E1 [4] = biological target: T2, Sulfotransferase 1E1 (Homo sapiens, UniProt P49888); assay: Compound was tested for inhibition against estrogen sulfotransferase (EST), a human cytosolic sulfotransferase
T2 sequence (P49888 whole entry): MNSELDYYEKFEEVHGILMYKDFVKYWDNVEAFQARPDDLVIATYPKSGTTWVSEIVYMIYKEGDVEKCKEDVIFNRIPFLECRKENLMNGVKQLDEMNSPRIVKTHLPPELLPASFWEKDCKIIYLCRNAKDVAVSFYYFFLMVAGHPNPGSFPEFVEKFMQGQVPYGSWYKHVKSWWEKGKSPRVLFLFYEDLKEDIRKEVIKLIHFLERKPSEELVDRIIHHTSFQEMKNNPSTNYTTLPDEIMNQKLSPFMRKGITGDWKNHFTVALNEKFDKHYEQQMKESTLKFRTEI

[5] = biological target: T3, Carbohydrate sulfotransferase 4 (Homo sapiens) (UniProt Q8NCG5); assay: Inhibitory activity of compound was determined against human high endothelial cell (HEC) GlcNAc-6-ST sulfotransferase at 100 uM; assay type: cell-based
T3 sequence (whole entry): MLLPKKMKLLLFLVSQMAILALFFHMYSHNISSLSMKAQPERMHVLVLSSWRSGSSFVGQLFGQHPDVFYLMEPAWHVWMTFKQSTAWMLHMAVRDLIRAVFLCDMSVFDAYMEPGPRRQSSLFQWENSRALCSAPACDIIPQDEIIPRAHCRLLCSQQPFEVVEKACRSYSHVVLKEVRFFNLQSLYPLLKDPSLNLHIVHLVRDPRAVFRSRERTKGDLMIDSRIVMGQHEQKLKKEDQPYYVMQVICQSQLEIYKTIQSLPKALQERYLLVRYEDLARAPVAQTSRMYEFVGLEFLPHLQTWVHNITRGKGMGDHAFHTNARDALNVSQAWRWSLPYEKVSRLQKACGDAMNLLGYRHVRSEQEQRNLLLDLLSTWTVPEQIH

[6] = biological target: T1, Protein-tyrosine sulfotransferase 2; assay: Compound was tested for reversible inhibition of human tyrosylprotein sulfotransferase-2 (hTPST-2) at 40 uM for 5 hours and dialyzed; complete reversible inhibition observed.
[7] = biological target: T4, estrogen sulfotransferase (Sulfotransferase 1E1) (Homo sapiens, UniProt P49888); assay: Inhibitory activity of compound was determined against estrogen sulfotransferase at 100 uM
T4 sequence (P49888 whole entry): T2 sequence (P49888 whole entry)

[8] = Inhibitory activity of compound was determined against bacterial GlcNAc-6-sulfotransferase (NodST) at 100 uM
Sulfotransferase 1E1 [9] = biological target: T2, Sulfotransferase 1E1; assay: Compound was tested for inhibition against estrogen sulfotransferase (EST), a human cytosolic sulfotransferase.
[10] = biological target: T4, estrogen sulfotransferase (Sulfotransferase 1E1); assay: Inhibitory activity of compound was determined against human estrogen sulfotransferase at 100 uM
[11] = biological target: T1, Protein-tyrosine sulfotransferase 2; assay: Compound was tested for reversible inhibition of human tyrosylprotein sulfotransferase-2 (hTPST-2) at 40 uM for 5 hours and dialyzed

SMILES: CO/N=C/c1coc2cc(C)c(C)cc2c1=O
- Inhibition [1]: 35%

SMILES: CO/N=C/c1ccc(-c2cccc(Cl)c2)o1
- Inhibition [1]: 50%

SMILES: CO/N=C/c1coc2c(Cl)cc(Cl)cc2c1=O
- IC50 [2]: > 1000 µM
- inhibition at 800 µM [3]: 40%

SMILES: CO/N=C/c1cc(I)c(O)c(OC)c1
- Inhibition [1]: 53%

SMILES: CO/N=C/c1cccc(F)c1O
- Inhibition [1]: 25%

SMILES: CO/N=C/c1cc(C)cc(Br)c1O
- Inhibition [1]: 31%

SMILES: CO/N=C/C(C)=C/c1ccco1
- Inhibition [1]: 59%

SMILES: CO/N=C/C(=C/c1ccco1)c1ccccc1
- Inhibition [1]: 55%

SMILES: CO/N=C/c1coc2ccc(Br)cc2c1=O
- Inhibition [1]: 85%

SMILES: CO/N=C/C=C/c1ccc([N+](=O)[O-])o1
- Inhibition [1]: 47%

SMILES: CO/N=C/c1c(O)ccc2ccccc12
- Inhibition [1]: 34%

SMILES: CO/N=C/c1ccc(-c2ccc(Cl)cc2)o1
- Inhibition [1]: 70%

Further lines, results first:

- Inhibition [1]: 37%
SMILES: CO/N=C/c1cc(OC)c(O)c(OC)c1

- IC50 [2]: 425 µM
SMILES: CO/N=C/c1cc(Br)c(O)c(Br)c1

- IC50 (Sulfotransferase 1E1 [4]): 0.25 µM
- inhibition [5]: 30%
- IC50 [2]: 30 µM
- Inhibition [6]: complete reversible inhibition observed
- inhibition at 100 µM [7]: 100%
- inhibition [8]: 66%
SMILES: O=c1c(/C=N/OCCCCCO/N=C/c2cc(Br)c(O)c(Br)c2)coc2c(Cl)cc(Cl)cc12

- Inhibition [1]: 45%
SMILES: CO/N=C/c1c(N)oc2ccccc2c1=O

- Inhibition [1]: 65%
SMILES: CO/N=C/c1ccc([N+](=O)[O-])s1

- IC50 (Sulfotransferase 1E1 [9]): 3 µM
- inhibition [5]: 7%
- inhibition at 100 µM [10]: 100%
- IC50 [2]: 40 µM
- inhibition at 40 µM [11]: 50%
- inhibition [8]: 19%
SMILES: O=c1c(/C=N/OCCCCCO/N=C/c2cc(Br)cc([N+](=O)[O-])c2O)coc2c(Cl)cc(Cl)cc12

- Inhibition [1]: 48%
SMILES: CO/N=C/c1cc(I)cc(I)c1O

- IC50 [2]: > 1000 µM
SMILES: CO/N=C/c1cc(Br)cc([N+](=O)[O-])c1O
